According to patent US20230212549A1, “COMPOUNDS COMPRISING A […] LIGAND AND USE THEREOF” (priority 2021, published 2023):
Numbered stars: 1 amine (or outer) side, 2 acyl side, 3 side chain; on linkers, the order of the positions; unused ones are H or OH. Bridge positions count the residues as written; N and C are the ends. Square brackets hold non-standard residues; d marks the D form. Peptide text beside a SMILES is read from it. * marks the point of attachment. X13 = O=C(O)CN1CCN(CC(=O)O)CCN(CC(=O)N2CCN(Cc3cc(C[*:1])cc(C[*:2])c3)CC2)CCN(CC(=O)O)CC1; mXylylene = c1cc(C[*:1])cc(C[*:2])c1; NMeF = CN[C@@H](Cc1ccccc1)C(=O)O; Tic = O=C(O)[C@@H]1Cc2ccccc2CN1; Hexanoyl = CCCCCC(=O)*

Key:
[1] = Plasma stability assay, mouse plasma; assay type: in vitro ADME; conditions: mouse, plasma, 37° C., read-out: % intact compound remaining after incubation, Mouse plasma; for remaining at 4 h, 9.8 µM: 4 h incubation; for remaining at 24 h, 9.8 µM: 24 h incubation
[2] = target: T1, Human recombinant FAP (Homo sapiens, UniProt Q12884); experiment: FRET-based FAP protease activity assay; assay type: biochemical; set-up: purchased R&D systems 3715-SE
T1 sequence (Q12884 whole entry): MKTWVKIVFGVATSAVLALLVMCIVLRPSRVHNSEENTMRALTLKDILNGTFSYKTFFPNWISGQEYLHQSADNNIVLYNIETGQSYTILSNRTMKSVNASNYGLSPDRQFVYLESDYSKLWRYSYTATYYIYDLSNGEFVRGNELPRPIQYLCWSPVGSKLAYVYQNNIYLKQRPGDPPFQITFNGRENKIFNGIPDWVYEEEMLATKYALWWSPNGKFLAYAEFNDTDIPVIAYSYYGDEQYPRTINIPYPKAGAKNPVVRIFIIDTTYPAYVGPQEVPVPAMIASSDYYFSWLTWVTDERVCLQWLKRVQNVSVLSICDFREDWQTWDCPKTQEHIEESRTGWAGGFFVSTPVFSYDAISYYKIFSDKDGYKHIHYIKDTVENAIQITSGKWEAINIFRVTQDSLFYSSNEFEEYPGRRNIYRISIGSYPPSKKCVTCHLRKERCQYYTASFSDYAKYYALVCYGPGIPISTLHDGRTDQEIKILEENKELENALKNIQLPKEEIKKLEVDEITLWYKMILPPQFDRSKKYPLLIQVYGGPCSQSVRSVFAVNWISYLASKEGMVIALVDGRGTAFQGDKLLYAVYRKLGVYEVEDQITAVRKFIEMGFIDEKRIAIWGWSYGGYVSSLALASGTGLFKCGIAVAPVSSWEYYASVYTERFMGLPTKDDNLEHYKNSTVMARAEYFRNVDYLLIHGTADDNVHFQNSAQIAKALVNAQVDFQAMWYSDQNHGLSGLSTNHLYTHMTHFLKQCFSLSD

[3] = target: T2, FAP-expressing human WI-38 fibroblasts (Homo sapiens, UniProt Q12884); experiment: Competitive FACS binding assay
T2 construct: FAP-expressing human WI-38 fibroblasts (ECACC) were cultured in EMEM; host or cells: WI-38 human fibroblasts
T2 sequence (Q12884 whole entry): as above
Experimental: Cells were analyzed in an Attune NxT flow cytometer. […] […].
Cells were analyzed in an Attune NxT flow cytometer. […]

[4] = 24 h incubation, 37° C.
[5] = target: T1, Human recombinant FAP; experiment: Surface plasmon resonance (Biacore) assay; assay type: binding
[6] = 24 h incubation, 37° C.; remark: listed apart in the source
[7] = Pharmacokinetic study in mice (plasma, NCA); conditions: mouse, intravenous; for Vd: mouse plasma
[8] = Pharmacokinetic study in rats (plasma, NCA); conditions: rat, intravenous; for Vd: rat plasma
[9] = system: HEK-FAP tumor; conditions: ^68Ga-labeled, PET/CT
[10] = pIC50 Category (Activity), FRET-based FAP protease activity assay, recombinant human FAP, 37° C.

Work on `CSCC[C@@H](NC(C)=O)C(=O)N[C@H]1CSCc2cccc(c2)CSC[C@@H](C(=O)N[C@@H](CC(=O)O)C(=O)N[C@@H](Cc2c[nH]cn2)C(=O)N[C@@H](Cc2ccccc2)C(=O)N[C@@H](CCCNC(=N)N)C(=O)N[C@@H](CC(=O)O)C(N)=O)NC(=O)[C@H](Cc2ccccc2)NC(=O)[C@H](CCC(=O)O)NC(=O)[C@H]([C@@H](C)O)NC(=O)[C@@H]2CCCN2C(=O)[C@@H]2CCCN2C1=O` [3BP-3187, Ac-met-[Cys(3MeBn)-Pro-Pro-Thr-Glu-Phe-Cys]-Asp-His-Phe-Arg-Asp-NH2] (Ac-[dM]CPPTEFCDHFRD-NH2; linker 2-8 via mXylylene) yielded a remaining at 4 h, 9.8 µM [1] of 100%.

In the case of `CSCC[C@H](NC(C)=O)C(=O)N[C@H]1CSCc2cccc(c2)CSC[C@@H](C(=O)N[C@@H](CC(=O)O)C(=O)N[C@@H](Cc2c[nH]cn2)C(=O)N(C)[C@@H](Cc2ccccc2)C(=O)N[C@@H](CCCNC(=N)N)C(=O)N[C@@H](CC(=O)O)C(N)=O)NC(=O)[C@H](Cc2ccccc2)NC(=O)[C@H](CCC(=O)O)NC(=O)[C@H]([C@@H](C)O)NC(=O)[C@@H]2CCCN2C(=O)[C@@H]2CCCN2C1=O` [3BP-3188, Ac-Met-[Cys(3MeBn)-Pro-Pro-Thr-Glu-Phe-Cys]-Asp-His-Nmf-Arg-Asp-NH2] (Ac-MCPPTEFCDH[NMeF]RD-NH2; linker 2-8 via mXylylene), the IC50 [2, 10] is reported as < 10 nM, the remaining at 4 h, 9.8 µM [1] is reported as 97% and the IC50 [3] is reported as < 10 nM.

In the case of `CSCC[C@H](NC(C)=O)C(=O)N[C@H]1CSCc2cccc(c2)CSC[C@@H](C(=O)N[C@@H](CC(=O)O)C(=O)N[C@@H](Cc2c[nH]cn2)C(=O)N2Cc3ccccc3C[C@H]2C(=O)N[C@@H](CCCNC(=N)N)C(=O)N[C@@H](CC(=O)O)C(N)=O)NC(=O)[C@H](Cc2ccccc2)NC(=O)[C@H](CCC(=O)O)NC(=O)[C@H]([C@@H](C)O)NC(=O)[C@@H]2CCCN2C(=O)[C@@H]2CCCN2C1=O` [3BP-3189, Ac-Met-[Cys(3MeBn)-Pro-Pro-Thr-Glu-Phe-Cys]-Asp-His-Tic-Arg-Asp-NH2] (Ac-MCPPTEFCDH[Tic]RD-NH2; linker 2-8 via mXylylene), the remaining at 4 h, 9.8 µM [1] is reported as 100%.

For `CCCCCC(=O)N[C@H]1CSCc2cccc(c2)CSC[C@@H](C(=O)N[C@@H](CCCCNC(=O)CN2CCN(CC(=O)O)CCN(CC(=O)O)CCN(CC(=O)O)CC2)CC(=O)O)NC(=O)[C@H](Cc2ccccc2)NC(=O)[C@H](CCC(N)=O)NC(=O)[C@H]([C@@H](C)O)NC(=O)[C@@H]2CCCN2C(=O)[C@@H]2CCCN2C1=O` [3BP-3397, Hex-[Cys(3MeBn)-Pro-Pro-Thr-Gln-Phe-Cys]-Bhk(DOTA)-OH], the “% intact compound remaining after incubation, Human plasma” value [4] was 100% (24 h).

With `CCCC[C@H](NC(=O)CCC(=O)NCCCOCCOCCOCCCNC(=O)CN1CCN(CC(=O)O)CCN(CC(=O)O)CCN(CC(=O)O)CC1)C(=O)N[C@H]1CSCc2cccc(c2)CSC[C@@H](C(=O)NCCC(=O)O)NC(=O)[C@H](Cc2ccccc2)NC(=O)[C@H](CCC(N)=O)NC(=O)[C@H]([C@@H](C)O)NC(=O)[C@@H]2CCCN2C(=O)[C@@H]2CCCN2C1=O` [3BP-3398, DOTA-Ttds-Nle-[Cys(3MeBn)-Pro-Pro-Thr-Gln-Phe-Cys]-Bal-OH] the “% intact compound remaining after incubation, Human plasma” value [4] was 99% (24 h).

With `CCCCCC(=O)N[C@H]1CSCc2cc(cc(CN3CCN(C(=O)CN4CCN(CC(=O)O)CCN(CC(=O)O)CCN(CC(=O)O)CC4)CC3)c2)CSC[C@@H](C(=O)O)NC(=O)[C@H](Cc2ccccc2)NC(=O)[C@H](CCC(N)=O)NC(=O)[C@H]([C@@H](C)O)NC(=O)[C@@H]2CCCN2C(=O)[C@@H]2CCCN2C1=O` [3BP-3555, Hex-[Cys(tMeBn(DOTA-PP))-Pro-Pro-Thr-Gln-Phe-Cys]-OH] the IC50 [2, 10] was < 10 nM, the Kd [5] was < 10 nM and the remaining at 24 h, 9.8 µM [1] was 88%. It also gave an IC50 [3] of 10 to 79.4 nM.

In the case of `CCCCCC(=O)N[C@H]1CSCc2cc(cc(CN3CCN(C(=O)CN4CCN(CC(=O)O)CCN(CC(=O)O)CCN(CC(=O)O)CC4)CC3)c2)CSC[C@@H](C(=O)N[C@@H](CC(=O)O)C(N)=O)NC(=O)[C@H](Cc2ccccc2)NC(=O)[C@H](CCC(N)=O)NC(=O)[C@H]([C@@H](C)O)NC(=O)[C@@H]2CCCN2C(=O)[C@@H]2CCCN2C1=O` [3BP-3590, Hex-[Cys(tMeBn(InDOTA-PP))-Pro-Pro-Thr-Gln-Phe-Cys]-Asp-NH2] (Hexanoyl-CPPTQFCD-NH2; linker 1-7 via X13), the “% intact compound remaining after incubation, Human plasma” value [4] is reported as 94% (24 h), the remaining at 24 h, 9.8 µM [1] is reported as 100% and the “% intact compound remaining after incubation, Rat plasma” value [6] is reported as 100% (24 h).

For `CCCCCC(=O)N[C@H]1CSCc2cc(CSCCNC(=O)CN3CCN(CC(=O)O)CCN(CC(=O)O)CCN(CC(=O)O)CC3)cc(c2)CSC[C@@H](C(=O)O)NC(=O)[C@H](Cc2ccccc2)NC(=O)[C@H](CCC(N)=O)NC(=O)[C@H]([C@@H](C)O)NC(=O)[C@@H]2CCCN2C(=O)[C@@H]2CCCN2C1=O` [3BP-3623, Hex-[Cys(tMeBn(InDOTA-AET))-Pro-Pro-Thr-Gln-Phe-Cys]-OH], the “% intact compound remaining after incubation, Human plasma” value [4] was 100% (24 h), the “% intact compound remaining after incubation, Rat plasma” value [6] was 100% (24 h) and the AUC(0-inf) ([7]; 4 nmol/kg) was 0.0077 µM·h. For the same molecule, the C0 ([7]; 4 nmol/kg) was 17.6 nM, the clearance ([7]; 4 nmol/kg) was 8.63 mL/min/kg and the half-life ([7]; 4 nmol/kg) was 35 min. For the same molecule, the Vd ([7]; 4 nmol/kg, Vss, 4 nmol/kg) was 0.36 L/kg, the Vd ([7]; 4 nmol/kg, Vz) was 0.44 L/kg and the AUC(0-inf) ([7]; 40 nmol/kg) was 0.055 µM·h. For the same molecule, the C0 ([7]; 40 nmol/kg) was 228 nM, the clearance ([7]; 40 nmol/kg) was 12 mL/min/kg and the half-life ([7]; 40 nmol/kg) was 30 min. The Vd ([7]; 40 nmol/kg, Vss, 40 nmol/kg) was 0.31 L/kg, the Vd ([7]; 40 nmol/kg, Vz) was 0.53 L/kg and the AUC(0-inf) ([7]; 400 nmol/kg) was 0.532 µM·h. It also gave a C0 ([7]; 400 nmol/kg) of 2130 nM, a clearance ([7]; 400 nmol/kg) of 12.5 mL/min/kg and a half-life ([7]; 400 nmol/kg) of 35 min. The Vd ([7]; 400 nmol/kg, Vss, 400 nmol/kg) was 0.2 L/kg, the Vd ([7]; 400 nmol/kg, Vz) was 0.64 L/kg and the AUC(0-inf) ([8]; 40 nmol/kg) was 0.074 µM·h. For the same molecule, the C0 ([8]; 40 nmol/kg) was 127 nM, the clearance ([8]; 40 nmol/kg) was 9.02 mL/min/kg and the half-life ([8]; 40 nmol/kg) was 45 min. For the same molecule, the Vd ([8]; 40 nmol/kg, Vss, 40 nmol/kg) was 0.48 L/kg, the Vd ([8]; 40 nmol/kg, Vz) was 0.58 L/kg and the AUC(0-inf) ([8]; 400 nmol/kg) was 0.738 µM·h. It also gave a C0 ([8]; 400 nmol/kg) of 1410 nM, a clearance ([8]; 400 nmol/kg) of 9.03 mL/min/kg and a half-life ([8]; 400 nmol/kg) of 71 min. It also gave a Vd ([8]; 400 nmol/kg, Vz) of 0.93 L/kg.

With `CCCCCC(=O)N[C@H]1CSCc2cc(CSCCNC(=O)CN3CCN(CC(=O)O)CCN(CC(=O)O)CCN(CC(=O)O)CC3)cc(c2)CSC[C@@H](C(=O)O)NC(=O)[C@H](Cc2ccccc2)NC(=O)[C@H](CCC(N)=O)NC(=O)[C@H]([C@@H](C)O)NC(=O)[C@@H]2CCCN2C(=O)[C@@H]2CCCN2C1=O` [3BP-3624, Hex-[Cys(tMeBn(LuDOTA-AET))-Pro-Pro-Thr-Gln-Phe-Cys]-OH] the “% intact compound remaining after incubation, Human plasma” value [4] was 100% (24 h) and the “% intact compound remaining after incubation, Rat plasma” value [6] was 100% (24 h).

For `CCCC[C@H](NC(=O)CCC(=O)NCCCOCCOCCOCCCNC(=O)CCC(C(=O)O)N1CCN(CC(=O)O)CCN(CC(=O)O)CC1)C(=O)N[C@H]1CSCc2cccc(c2)CSCC(C(=O)O)NC(=O)[C@H](Cc2ccccc2)NC(=O)[C@H](CCC(N)=O)NC(=O)[C@H]([C@@H](C)O)NC(=O)[C@@H]2CCCN2C(=O)[C@@H]2CCCN2C1=O` (stereo partly drawn) [3BP-4713, NODAGA-Ttds-Nle-[Cys(3MeBn)-Pro-Pro-Thr-Gln-Phe-Cys]-OH], the IC50 ([2]; pIC50 Category (activity), Recombinant human FAP) was 10 to 79.4 nM, the IC50 [3] was 10 to 79.4 nM and the “uptake BPS 0.25 h” value ([9]; BPS (blood pool surrogate), 0.25 h post tracer injection) was 2.27 % ID/g. For the same molecule, the “uptake BPS 1 h” value ([9]; BPS (blood pool surrogate), 1 h post tracer injection) was 0.77 % ID/g, the “uptake BPS 3 h” value ([9]; BPS (blood pool surrogate), 3 h post tracer injection) was 0.19 % ID/g and the “uptake Tumor 0.25 h” value ([9]; HEK-FAP tumor, 0.25 h post tracer injection) was 3.46 % ID/g. The “uptake Tumor 1 h” value ([9]; HEK-FAP tumor, 1 h post tracer injection) was 3.90 % ID/g, the “uptake Tumor 3 h” value ([9]; HEK-FAP tumor, 3 h post tracer injection) was 3.21 % ID/g and the “uptake Kidneys 0.25 h” value ([9]; kidneys, 0.25 h post tracer injection) was 9.05 % ID/g. For the same molecule, the “uptake Kidneys 1 h” value ([9]; kidneys, 1 h post tracer injection) was 2.50 % ID/g and the “uptake Kidneys 3 h” value ([9]; kidneys, 3 h post tracer injection) was 0.82 % ID/g.
